# Source: ChEMBL document CHEMBL1201862, “PubChem BioAssay data set” (2004)
# The source made the active and inactive calls.
# What was measured:
# [1] = target: T1, Beta-galactosidase (Escherichia coli, UniProt Q8VNN2); type: functional
# [2] = Counterscreen for AddAB inhibitors: absorbance-based bacterial cell-based high throughput dose response assay for inhibitors of bacterial viability. [Related pubchem assays (depositor defined):AID435030, AID449728, AID449731, AID488942, AID488955, AID488956]; type: functional
# [3] = target: T2, Exodeoxyribonuclease V (Escherichia coli (strain K12), UniProt P04993+P07648+P08394); test: RecBCD inhibition via phage-restricted bacterial growth – absorbance, V66 E. coli, mutant T4 phage, counter-screen for AddAB inhibitor project, dose response (AID 492957); type: functional, cell-based, Escherichia coli str. K-12 substr. MG1655
# T2 sequence (P04993 whole entry): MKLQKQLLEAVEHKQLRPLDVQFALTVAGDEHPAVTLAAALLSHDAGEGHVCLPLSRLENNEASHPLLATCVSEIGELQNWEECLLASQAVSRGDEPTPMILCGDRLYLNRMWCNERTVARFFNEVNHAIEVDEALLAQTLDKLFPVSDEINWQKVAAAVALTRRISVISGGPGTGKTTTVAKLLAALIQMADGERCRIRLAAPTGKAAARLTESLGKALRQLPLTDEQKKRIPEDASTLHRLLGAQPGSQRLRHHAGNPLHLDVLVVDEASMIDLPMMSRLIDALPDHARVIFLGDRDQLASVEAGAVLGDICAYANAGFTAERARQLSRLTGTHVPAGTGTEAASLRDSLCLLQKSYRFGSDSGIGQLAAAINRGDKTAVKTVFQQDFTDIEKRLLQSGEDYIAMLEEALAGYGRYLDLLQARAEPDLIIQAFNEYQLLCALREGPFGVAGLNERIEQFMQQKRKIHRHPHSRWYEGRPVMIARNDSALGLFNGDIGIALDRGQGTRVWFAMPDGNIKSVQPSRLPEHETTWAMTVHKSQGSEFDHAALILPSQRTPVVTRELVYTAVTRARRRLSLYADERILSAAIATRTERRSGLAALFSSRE
# T2 sequence (P07648 whole entry): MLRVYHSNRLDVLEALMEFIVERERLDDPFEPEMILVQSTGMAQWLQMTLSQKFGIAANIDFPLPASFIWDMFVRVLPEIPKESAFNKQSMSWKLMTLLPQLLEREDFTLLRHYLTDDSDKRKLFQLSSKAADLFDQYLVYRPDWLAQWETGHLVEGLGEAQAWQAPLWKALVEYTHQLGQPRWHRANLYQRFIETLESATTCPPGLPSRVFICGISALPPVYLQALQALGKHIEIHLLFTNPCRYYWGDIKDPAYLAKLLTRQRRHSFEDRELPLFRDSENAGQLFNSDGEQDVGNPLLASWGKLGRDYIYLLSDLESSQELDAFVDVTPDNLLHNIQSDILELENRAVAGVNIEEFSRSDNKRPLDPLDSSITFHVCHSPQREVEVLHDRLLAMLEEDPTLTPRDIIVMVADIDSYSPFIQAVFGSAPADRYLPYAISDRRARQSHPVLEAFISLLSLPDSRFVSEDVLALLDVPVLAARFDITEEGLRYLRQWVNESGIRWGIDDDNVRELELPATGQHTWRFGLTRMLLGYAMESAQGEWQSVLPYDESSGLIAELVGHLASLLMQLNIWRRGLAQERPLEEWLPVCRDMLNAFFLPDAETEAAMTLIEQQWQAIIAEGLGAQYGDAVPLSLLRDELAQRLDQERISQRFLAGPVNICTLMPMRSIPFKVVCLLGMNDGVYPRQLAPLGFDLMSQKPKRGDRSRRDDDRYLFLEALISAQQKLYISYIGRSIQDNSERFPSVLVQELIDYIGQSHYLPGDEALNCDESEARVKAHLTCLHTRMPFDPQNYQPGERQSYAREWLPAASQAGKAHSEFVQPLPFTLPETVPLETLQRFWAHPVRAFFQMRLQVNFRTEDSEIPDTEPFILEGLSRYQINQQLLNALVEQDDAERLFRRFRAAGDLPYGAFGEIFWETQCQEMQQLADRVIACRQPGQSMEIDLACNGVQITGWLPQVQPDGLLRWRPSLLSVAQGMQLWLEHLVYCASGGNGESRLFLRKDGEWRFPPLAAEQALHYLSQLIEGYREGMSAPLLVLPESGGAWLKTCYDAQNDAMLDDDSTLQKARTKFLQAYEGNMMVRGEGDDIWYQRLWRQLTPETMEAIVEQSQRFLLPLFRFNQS
# T2 sequence (P08394 whole entry): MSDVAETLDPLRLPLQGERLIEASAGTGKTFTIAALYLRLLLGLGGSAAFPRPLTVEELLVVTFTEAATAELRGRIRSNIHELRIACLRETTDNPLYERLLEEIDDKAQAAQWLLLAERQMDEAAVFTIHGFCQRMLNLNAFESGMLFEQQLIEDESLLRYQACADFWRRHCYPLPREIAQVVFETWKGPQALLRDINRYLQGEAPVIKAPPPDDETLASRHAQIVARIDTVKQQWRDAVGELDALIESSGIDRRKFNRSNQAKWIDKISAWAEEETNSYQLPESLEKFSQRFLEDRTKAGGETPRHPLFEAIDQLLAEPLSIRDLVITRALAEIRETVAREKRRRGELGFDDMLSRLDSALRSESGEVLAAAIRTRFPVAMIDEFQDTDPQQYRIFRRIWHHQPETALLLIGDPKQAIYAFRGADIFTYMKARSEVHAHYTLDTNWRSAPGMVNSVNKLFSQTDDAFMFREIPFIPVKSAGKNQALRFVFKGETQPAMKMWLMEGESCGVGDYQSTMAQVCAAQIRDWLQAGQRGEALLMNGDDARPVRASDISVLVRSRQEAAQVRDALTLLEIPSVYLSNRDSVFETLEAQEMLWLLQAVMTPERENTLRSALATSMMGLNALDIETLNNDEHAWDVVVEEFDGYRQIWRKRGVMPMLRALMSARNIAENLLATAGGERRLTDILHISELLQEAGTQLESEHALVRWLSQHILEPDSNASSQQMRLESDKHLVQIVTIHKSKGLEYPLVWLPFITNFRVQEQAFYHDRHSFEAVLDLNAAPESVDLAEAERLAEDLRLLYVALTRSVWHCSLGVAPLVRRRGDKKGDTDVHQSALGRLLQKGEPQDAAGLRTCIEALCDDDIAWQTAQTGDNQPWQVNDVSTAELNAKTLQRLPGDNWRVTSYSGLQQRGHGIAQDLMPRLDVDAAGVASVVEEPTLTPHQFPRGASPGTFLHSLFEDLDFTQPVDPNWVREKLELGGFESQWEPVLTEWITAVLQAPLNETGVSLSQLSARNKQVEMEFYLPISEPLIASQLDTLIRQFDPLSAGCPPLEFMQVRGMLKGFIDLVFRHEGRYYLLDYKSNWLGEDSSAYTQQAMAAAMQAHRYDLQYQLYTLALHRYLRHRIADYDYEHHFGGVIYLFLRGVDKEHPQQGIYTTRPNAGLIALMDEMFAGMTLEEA
# [4] = system: HEK293; test: EBV LMP1 TES2 canonical NF-kB signalling blockers – cell-based, HEK293, luciferase, cherry-pick, dose response (AID 588343); type: functional; conditions: Homo sapiens
# [5] = target: T3, Kappa-type opioid receptor (Homo sapiens, UniProt P41145); type: functional
# [6] = target: T3, Kappa-type opioid receptor; type: functional; remark: listed apart in the source
# [7] = system: CHO-K1; test: (§1) Counterscreen for antagonists of the orexin 1 receptor (OX1R; HCRTR1): Homogeneous time resolved fluorescence (HTRF)-based cell-based dose response assay to identify antagonists of the parental CHO-K1 cell line. [Related pubchem assays (depositor defined):AID434989, AID435008, AID463079, AID485270, AID492963, AID492964, AID492965, AID493232, AID504699, AID504701]; type: functional; conditions: Cricetulus griseus
# [8] = target: T4, Orexin/Hypocretin receptor type 1 (Homo sapiens, UniProt O43613); test: (§2) Fluorescence-based cell-based high throughput dose response assay for antagonists of the orexin 1 receptor (OX1R; HCRTR1). [Related pubchem assays (depositor defined):AID434989, AID435008, AID463079, AID485270, AID492963, AID492964, AID492965, AID493232, AID504717, AID504718]; type: functional
# T4 sequence (O43613 whole entry): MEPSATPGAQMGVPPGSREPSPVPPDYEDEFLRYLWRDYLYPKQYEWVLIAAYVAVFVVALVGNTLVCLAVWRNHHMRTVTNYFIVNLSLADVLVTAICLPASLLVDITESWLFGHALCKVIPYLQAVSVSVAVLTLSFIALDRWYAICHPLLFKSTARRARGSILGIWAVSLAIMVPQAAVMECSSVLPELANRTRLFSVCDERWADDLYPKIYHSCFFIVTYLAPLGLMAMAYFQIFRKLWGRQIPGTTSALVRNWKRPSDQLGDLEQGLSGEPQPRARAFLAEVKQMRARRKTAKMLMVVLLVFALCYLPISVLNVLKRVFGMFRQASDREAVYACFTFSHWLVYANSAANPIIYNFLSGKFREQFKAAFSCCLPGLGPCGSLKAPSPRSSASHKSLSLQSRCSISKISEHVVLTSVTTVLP
# [9] = target: T4, Orexin/Hypocretin receptor type 1; test: as §2, with “Homogeneous Time Resolved Fluorescence (HTRF)-based” for “Fluorescence-based”; type: functional
# [10] = as §1, with “Fluorescence-based” for “Homogeneous time resolved fluorescence (HTRF)-based”, “cell-based high throughput” for “cell-based”, “CHO” for “CHO-K1”; type: functional
# [11] = target: SUMO-activating enzyme (Homo sapiens, UniProt Q9UBT2); test: blockers of UBC9-mediated SUMO conjugation – biochemical, AlphaScreen, SUMOylation inhibitor project, confirmation (AID 2018); type: functional
# [12] = target: T5, Coagulation factor XII (Homo sapiens, UniProt P00748); type: functional;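 note: activated factor XIIa alpha cleaving a fluorogenic AMC peptide substrate; inhibitor potency from loss of enzyme activity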
# T5 sequence (P00748 whole entry): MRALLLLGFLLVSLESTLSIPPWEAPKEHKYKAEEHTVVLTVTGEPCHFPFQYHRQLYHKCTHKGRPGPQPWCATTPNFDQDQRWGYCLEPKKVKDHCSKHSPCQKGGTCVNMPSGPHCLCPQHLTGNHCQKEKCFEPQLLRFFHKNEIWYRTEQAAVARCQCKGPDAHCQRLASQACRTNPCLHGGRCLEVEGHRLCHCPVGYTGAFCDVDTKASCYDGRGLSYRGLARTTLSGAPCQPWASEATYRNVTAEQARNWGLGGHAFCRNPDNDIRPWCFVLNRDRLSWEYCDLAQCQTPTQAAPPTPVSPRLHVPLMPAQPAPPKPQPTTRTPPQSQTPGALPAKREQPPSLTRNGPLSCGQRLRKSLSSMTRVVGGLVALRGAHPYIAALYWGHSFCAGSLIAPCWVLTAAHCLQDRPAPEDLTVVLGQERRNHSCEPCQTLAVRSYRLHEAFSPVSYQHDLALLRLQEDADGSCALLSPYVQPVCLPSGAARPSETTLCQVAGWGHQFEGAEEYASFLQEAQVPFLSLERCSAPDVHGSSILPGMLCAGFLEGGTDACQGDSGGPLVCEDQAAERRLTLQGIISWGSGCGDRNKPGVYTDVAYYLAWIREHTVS
# [13] = target: T6, Calpain-2 catalytic subunit (Sus scrofa, UniProt P43367); test: m-calpain protease blockers, concentration series – biochemical, fluorogenic peptide substrate, dose response (AID 1420); type: functional
# T6 sequence (P43367 whole entry): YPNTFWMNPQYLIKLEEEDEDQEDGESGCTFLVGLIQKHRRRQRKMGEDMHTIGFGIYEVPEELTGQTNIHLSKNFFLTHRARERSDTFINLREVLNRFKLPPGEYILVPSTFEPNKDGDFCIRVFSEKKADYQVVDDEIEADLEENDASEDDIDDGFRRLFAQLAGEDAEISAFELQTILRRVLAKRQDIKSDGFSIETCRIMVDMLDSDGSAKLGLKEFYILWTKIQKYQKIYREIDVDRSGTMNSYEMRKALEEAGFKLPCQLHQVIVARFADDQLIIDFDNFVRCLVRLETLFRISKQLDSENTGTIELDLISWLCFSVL
# [14] = target: Cytochrome P450 2D6 (Homo sapiens, UniProt P10635);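 note: CYP2D6 member of a cytochrome P450 panel assay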
# [15] = target: T1, Beta-galactosidase; test: detection-enzyme interference by beta-gal modulators – biochemical, E. coli enzyme, set 3, artefact control for CCR6 antagonist project, dose response (AID 504712); type: functional
# [16] = system: Streptococcus; test: GAS UMAA2166 growth inhibition – luminescence, BacTiterGlo, counter-screen for streptokinase expression inhibitor project, dose response (AID 1915); type: functional, organism-based;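 note: potency for reduction of bacterial viability or growth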
# [17] = system: Streptococcus sp. 'group A'; test: Streptococcus pyogenes SK(-)GAS viability under kanamycin – luminescence, BacTiterGlo, confirmation, counter-screen for streptokinase expression inhibitor project, dose response (AID 1900); type: functional, organism-based
# T1 sequence (Q8VNN2 whole entry): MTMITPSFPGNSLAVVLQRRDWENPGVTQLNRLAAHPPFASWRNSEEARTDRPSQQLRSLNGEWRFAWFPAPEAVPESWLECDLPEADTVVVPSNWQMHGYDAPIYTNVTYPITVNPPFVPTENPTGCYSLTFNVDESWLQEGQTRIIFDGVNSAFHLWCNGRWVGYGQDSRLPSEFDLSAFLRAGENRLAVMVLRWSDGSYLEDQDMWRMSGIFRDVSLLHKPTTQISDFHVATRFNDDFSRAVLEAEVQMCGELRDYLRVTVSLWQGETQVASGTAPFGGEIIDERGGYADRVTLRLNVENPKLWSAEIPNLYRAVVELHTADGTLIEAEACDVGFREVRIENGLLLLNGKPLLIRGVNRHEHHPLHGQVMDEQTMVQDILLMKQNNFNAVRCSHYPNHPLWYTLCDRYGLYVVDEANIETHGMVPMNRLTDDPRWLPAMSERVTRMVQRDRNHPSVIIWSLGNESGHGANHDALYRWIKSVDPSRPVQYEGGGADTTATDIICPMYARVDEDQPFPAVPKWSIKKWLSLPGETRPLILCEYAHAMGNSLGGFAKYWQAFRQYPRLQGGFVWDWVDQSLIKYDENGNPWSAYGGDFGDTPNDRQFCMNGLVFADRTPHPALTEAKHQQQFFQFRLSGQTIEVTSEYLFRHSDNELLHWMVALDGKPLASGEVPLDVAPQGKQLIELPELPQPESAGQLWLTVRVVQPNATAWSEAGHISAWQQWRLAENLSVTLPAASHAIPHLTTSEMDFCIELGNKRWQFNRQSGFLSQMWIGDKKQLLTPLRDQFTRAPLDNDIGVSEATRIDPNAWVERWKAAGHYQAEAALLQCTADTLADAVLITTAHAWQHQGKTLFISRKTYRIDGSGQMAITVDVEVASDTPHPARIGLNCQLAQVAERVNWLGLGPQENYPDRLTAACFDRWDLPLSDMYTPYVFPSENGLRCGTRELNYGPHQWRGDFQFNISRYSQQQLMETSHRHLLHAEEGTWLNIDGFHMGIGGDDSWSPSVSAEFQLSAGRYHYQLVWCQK
# T3 sequence (P41145 whole entry): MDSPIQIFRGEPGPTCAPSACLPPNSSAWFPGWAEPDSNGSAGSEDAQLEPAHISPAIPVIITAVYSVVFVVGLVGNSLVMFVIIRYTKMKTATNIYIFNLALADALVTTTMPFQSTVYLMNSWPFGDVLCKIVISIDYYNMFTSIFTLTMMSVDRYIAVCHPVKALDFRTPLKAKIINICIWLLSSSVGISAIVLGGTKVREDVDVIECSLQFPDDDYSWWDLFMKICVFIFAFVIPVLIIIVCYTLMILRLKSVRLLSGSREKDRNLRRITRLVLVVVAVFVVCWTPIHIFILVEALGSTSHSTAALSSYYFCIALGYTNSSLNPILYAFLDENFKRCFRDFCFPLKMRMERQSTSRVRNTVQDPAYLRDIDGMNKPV
# Chain of SUMO-activating enzyme (Q9UBE0 whole entry): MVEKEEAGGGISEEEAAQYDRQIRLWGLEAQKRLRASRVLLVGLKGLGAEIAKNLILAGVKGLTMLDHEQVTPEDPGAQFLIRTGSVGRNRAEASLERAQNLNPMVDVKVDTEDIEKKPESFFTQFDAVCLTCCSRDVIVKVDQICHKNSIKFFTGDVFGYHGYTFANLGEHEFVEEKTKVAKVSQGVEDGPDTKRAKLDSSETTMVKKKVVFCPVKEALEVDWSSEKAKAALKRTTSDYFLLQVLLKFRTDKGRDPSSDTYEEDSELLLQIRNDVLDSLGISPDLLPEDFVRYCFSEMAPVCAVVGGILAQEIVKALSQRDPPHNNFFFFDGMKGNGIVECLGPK
# Chain of SUMO-activating enzyme (Q9UBT2 whole entry): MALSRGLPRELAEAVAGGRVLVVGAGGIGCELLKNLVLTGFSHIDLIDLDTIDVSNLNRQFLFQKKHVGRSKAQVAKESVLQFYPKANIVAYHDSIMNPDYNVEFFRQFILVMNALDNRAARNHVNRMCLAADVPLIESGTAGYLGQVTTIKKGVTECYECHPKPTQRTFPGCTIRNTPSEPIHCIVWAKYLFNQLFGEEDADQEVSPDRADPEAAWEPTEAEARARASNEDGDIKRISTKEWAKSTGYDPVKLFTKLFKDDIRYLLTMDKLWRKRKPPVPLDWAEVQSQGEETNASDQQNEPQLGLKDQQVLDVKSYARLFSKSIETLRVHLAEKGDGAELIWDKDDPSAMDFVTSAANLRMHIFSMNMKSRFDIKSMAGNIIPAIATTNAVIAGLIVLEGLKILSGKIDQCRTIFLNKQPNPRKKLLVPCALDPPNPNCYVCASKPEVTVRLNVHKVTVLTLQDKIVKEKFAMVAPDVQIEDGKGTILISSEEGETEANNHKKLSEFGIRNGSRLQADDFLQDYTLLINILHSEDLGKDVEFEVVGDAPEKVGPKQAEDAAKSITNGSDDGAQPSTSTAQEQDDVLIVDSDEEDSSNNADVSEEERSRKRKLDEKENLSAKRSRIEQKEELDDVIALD
# Chain of Cytochrome P450 2D6 (P10635 whole entry): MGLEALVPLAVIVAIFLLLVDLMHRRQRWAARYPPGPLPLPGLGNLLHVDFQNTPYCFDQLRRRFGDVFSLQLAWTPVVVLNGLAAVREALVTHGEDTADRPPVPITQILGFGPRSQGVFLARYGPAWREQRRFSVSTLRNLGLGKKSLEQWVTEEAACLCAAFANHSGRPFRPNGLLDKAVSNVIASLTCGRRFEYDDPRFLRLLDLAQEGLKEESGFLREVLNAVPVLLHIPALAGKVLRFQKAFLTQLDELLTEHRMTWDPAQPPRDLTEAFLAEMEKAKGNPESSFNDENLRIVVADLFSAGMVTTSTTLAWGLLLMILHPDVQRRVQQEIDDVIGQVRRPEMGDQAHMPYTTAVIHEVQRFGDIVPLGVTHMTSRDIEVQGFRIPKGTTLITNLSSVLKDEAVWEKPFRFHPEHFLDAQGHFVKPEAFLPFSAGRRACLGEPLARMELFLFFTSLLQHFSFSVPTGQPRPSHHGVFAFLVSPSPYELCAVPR
smiles,measurement,setting,value
NC(=S)N/N=C/c1ncc(C(F)(F)F)cc1Cl,EC50,[1],> 31.5 µM (inactive)
same,IC50,[2],> 119 µM (inactive)
same,IC50,[3],> 119 µM (inactive)
same,AC50,[4],10.2 µM (active)
same,IC50,[5],22.2 µM (inactive)
same,IC50,[6],> 32 µM
CC(C)n1c(=O)[nH][nH]c1=S,IC50,[7],> 66.2 µM (inactive)
same,IC50,[8],34.4 µM (inactive)
same,IC50,[9],7.04 µM (active)
same,IC50,[10],> 49.8 µM (inactive)
COc1ccc(CNC(=O)COC(=O)[C@H](Cc2c[nH]c3ccccc23)NC(=O)c2cccs2)cc1,IC50,[7],> 66.2 µM (inactive)
same,IC50,[8],13.1 µM (inactive)
same,IC50,[9],26.9 µM (inactive)
same,IC50,[10],12.8 µM (inactive)
COc1ccc(-c2nc3cc([N+](=O)[O-])ccc3[nH]2)cc1,IC50,[11],35 µM (active)
COc1ccc(C2C(C(=O)Nc3ccccc3OC)=C(C)Nc3ncnn32)cc1 (configuration not stated),IC50,[12],> 50 µM (inactive)
Cc1cc(C)c(C#N)c(SCc2ccc([N+](=O)[O-])cc2)n1,IC50,[12],> 50 µM (inactive)
Cc1ccsc1C(=O)NCCC(c1ccccc1)c1ccccc1,IC50,[13],719 nM (not active)
same,IC50,[12],> 50 µM (inactive)
CN(C)S(=O)(=O)Oc1ccsc1C(=O)Nc1cccc(Cl)c1,AC50,[14],25.1 µM (inconclusive)
same,IC50,[12],> 50 µM (inactive)
N=C1SCC(=O)N1c1ncc(Cc2ccc(F)cc2)s1,IC50,[15],> 66.6 µM (inactive)
same,EC50,[1],> 31.5 µM (inactive)
same,IC50,[5],7.35 µM (active)
same,EC50,[16],2.21 µM (active)
same,IC50,[6],> 32 µM
same,EC50,[17],949 nM (active)
